Test results taken from US20260207637A1, “MODULATOR FOR PROMOTING BINDING OF BUTYROPHILIN 3A1/2A1” (priority 2023, published 2026).
Read-outs that look alike come from different tables or passages of the source.

How the values were obtained:
[1] = Binding rate test of compounds and human plasma protein (equilibrium dialysis); type: in vitro ADME; conditions: human plasma, equilibrium dialysis 6 hours, 37° C.
Experimental: (§1) (1) The dry dialysis membrane was soaked with ultrapure water for 20 min or more than 20 min, then soaked with 20% ethanol for 30 min to 1 h, and the membrane was rinsed with ultrapure water 2-3 times. Finally, the membrane was soaked with ultrapure water for 20 minutes for later use.
(§2) (2) The frozen plasma was thawed in a water bath at 37° C.
(§3) (3) The test compound was diluted into plasma preheated to 37° C. at a final concentration of 1 μM, and the final concentration of the control compound warfarin in plasma was 2 μM.
(§4) (4) The pre-treated dialysis membrane was assembled into the dialysis plate according to the specification of the product, and 120 μL of the receiving solution (100 mM phosphate buffer solution added 0.002% Tween 80) was added to one side of the permeable membrane in each dialysis well.
(§5) (5) 20 μL of each of the final solutions of the test compound and the control compound were added into a 96-well sample plate in duplicate, and the TO sample was obtained, which was stored in a refrigerator at −20° C. Another 20 μL of the above final solution was added to the other side of the membrane in the dialysis device in duplicate, and incubated at 37° C. by shaking at constant temperature for 6 hours.
(§6) (6) After 6 hours of incubation, 20 L of each of the dialyzed receiving solution and the administered plasma were weighed to obtain sample B and sample A in duplicate. The corresponding volume of corresponding blank plasma or receiving solution was added to sample B and sample A, respectively, so that the volume ratio of plasma to buffer in each sample well was 1:1. 300 μL of acetonitrile solution containing internal standard was added to all sample wells, and centrifuged after mixed uniformly.
(§7) (7) 200 μL of ultrapure water (150 μL for the control group) was added into the corresponding sample wells of the 96-well sample plate, and 300 μL of the supernatant (150 μL for the control group) was added into the sample well; the samples were analyzed after mixed uniformly. The free percentage and recovery rate of the compound in plasma were calculated using the following formula: Plasma protein binding rate (%)=1−free percentage, wherein free percentage (%)=CB/CA
(§8) wherein CB is the concentration of the compound in the receiving solution after equilibrium dialysis, CA is the concentration of the compound in the drug-dosed plasma after equilibrium dialysis, and CT0 is the initial concentration of the compound in plasma.

[2] = tested on: MIApaca/FG2 cells; test: EC50 assay of small molecule activated γδ T cells to kill MIApaca/FG2 tumor cells (3-fold dilution protocol); type: cell-based; conditions: 0.05-100 nM, read-out: MIApaca killing (EC50)
Experimental: γδT cells and MIApaca/FG2 tumor cell lines were expanded and cultured in vitro. MIApaca/FG2 cells were digested, and the cells were counted and resuspended in DMEM complete medium, the density of the cell suspension was adjusted and added into a 96-well plate at 5×10^3 cells/100 […]/well for overnight incubation. On the next day, the test compound and the control compound were diluted at a 3-fold ratio with DMSO, and 4 μL of the diluted compound was added to 96 μL of culture medium for 25-fold dilution. 5 μL of 25-fold diluted compound was transferred to the corresponding well which had been plated with tumor cells, and the actual detection concentration was in the range of 0.05-100 nM. γδT cells were resuspended in γδT complete medium, and the density of the cell suspension was adjusted according to the effector-target ratio of E:T=2:1, and then the cell was added to the corresponding well at 1×10^4 cells/100 μL/well. After co-culture at 37° C., 5% CO2 for 20 hours, the cells were centrifuged. The supernatant was removed, and 50 μL of cell lysate containing fluorescein substrate was added to each well. After standing for 18 minutes in the dark, the signal of chemiluminescence was detected. The EC50 value was calculated by four-parameter fitting, with the corresponding signal value of the well with only tumor cells as the minimum killing value, and the corresponding value of the well without tumor cells as the maximum killing value. The killing data of MIApaca/FG2 cells is as follows: […]

[3] = tested on: MV4-11-luc cells; test: EC50 assay of small molecule activated γδ T cells to kill MV4-11-luc tumor cells; type: cell-based; conditions: γδT cells + MV4-11-luc, E:T=2:1, co-culture 20 hours, 0.05-100 nM, read-out: MV4-11 killing (EC50)
Experimental: γδT cells and MV4-11-luc tumor cell lines were expanded and cultured in vitro. The MV4-11-luc cells were digested, and the cells were counted and resuspended in IMDM complete medium, the density of the cell suspension was adjusted and added into a 96-well plate at 5×10^3 cells/100 μL/well for overnight incubation. On the next day, the test compound and the control compound were diluted at a 3-fold ratio with DMSO, and 4 μL of the diluted compound was added to 96 μL of culture medium for 25-fold dilution. 5 μL of 25-fold diluted compound was transferred to the corresponding well which had been plated with tumor cells, and the actual detection concentration was in the range of 0.05-100 nM. γδT cells were resuspended in γδT complete medium, and the density of the cell suspension was adjusted according to the effector-target ratio of E:T=2:1, and then the cell was added to the corresponding well at 1×10^4 cells/100 μL/well. After co-culture at 37° C., 5% CO2 for 20 hours, the cells were centrifuged. […] After standing for 18 minutes in the dark, the signal of chemiluminescence was detected. The EC50 value was calculated by four-parameter fitting, with the corresponding signal value of the well with only tumor cells as the minimum killing value, and the corresponding value of the well without tumor cells as the maximum killing value.

[4] = tested on: human plasma protein; test: Binding rate test of compounds and human plasma protein (equilibrium dialysis); type: in vitro ADME; conditions: 1 μM, equilibrium dialysis 6 hours, 37° C.
Experimental: as §1, §2, §3, §4, §5, §6, §7, §8

[5] = Pharmacokinetic test in cynomolgus monkeys; type: in vivo; conditions: IV 2 mg/kg
Experimental: The control compound 2 and compound 19 were formulated into 1 mg/mL solution in 10% DMSO/90% PBS. Cynomolgus monkeys were obtained from Suzhou Leo Bio Technology Co., Ltd. The control compound 2 and compound 19 were administered intravenously at 2 mg/kg, respectively. The blood collected before administration was recorded as zero point. Then 1 mL of blood was collected at eight time points: 0.083, 0.15, 0.5, 1.0 2.0, 4.0, 8.0, and 24.0, respectively. 1 mL of the collected whole blood was placed in a labeled EDTA-2K anticoagulant tube. After gently inverting up and down to fully mix the anticoagulant (EDTA-2K) with the blood, it was immediately placed in wet ice and centrifuged within 30 minutes to separate the plasma. The centrifugation conditions were set to 4° C., 2200 g, and 6 min. The plasma separated after centrifugation was placed in a labeled EP tube, and the content of compound 19 and control compound 2 in the plasma samples at different time points were detected and analyzed. There were 3 male cynomolgus monkeys in each group.

| Compound | fraction unbound at 6 h, 1 μM [1] | EC50 ([2]; Homo sapiens, MIA PaCa-2, γδT cells + MIApaca/FG2, E:T=2:1, co-culture 20 hours) [pM] | EC50 ([3]; Homo sapiens) [pM] | human plasma protein binding rate [4] [%] | EC50 ([2]; γδT cells + MIApaca/FG2, E:T=2:1, co-culture 20 hours) [pM] | EC50 [3] [pM] | Plasma concentration of the unchanged drug ([5]; 5 min) [ng/mL] | Plasma concentration of the unchanged drug ([5]; 9 min) [ng/mL] | Plasma concentration of the unchanged drug ([5]; 30 min) [ng/mL] | Plasma concentration of the unchanged drug ([5]; 1 h) [ng/mL] | AUC0-t (AUClast) ([5]; average) [ng·h/mL] | AUC0-t/AUC0-inf ([5]; average) | Cl (Cl_obs) ([5]; average) [mL/min/kg] |
| --- | --- | --- | --- | --- | --- | --- | --- | --- | --- | --- | --- | --- | --- |
| C/C(=C\CCP(=O)(N[C@@H](C)C(=O)OC(C)C)Oc1ccccc1)CO (stereo partly drawn) [Control compound 1, Isopropyl (((E)-5-hydroxy-4-methylpent-3-en-1-yl)(phenoxy)phosphoryl)-L-alaninate, reference compound] | 0.073 | 530 | 50 |  |  |  |  |  |  |  |  |  |  |
| C/C(=C\CC[P@@](=O)(N[C@@H](C)C(=O)O[C@@H]1CCOC1)Oc1ccccc1)CO [Compound 19, (R)-tetrahydrofuran-3-yl ((S)-((R)-5-hydroxy-4-methylpent-3-en-1-yl)(phenoxy)phosphoryl)-L-alaninate] |  |  |  | 64.6 | 280 | 4 | 1370 | 878 | 139 | 12 | 426 | 0.959 | 76.3 |
